In patent US8232248B2, “Treatment of rheumatoid arthritis with mammal beta defensins” (Novozymes Adenium Biotech A/S, priority 2008, dated 2012):
Where no end group is shown, it is not given here.

What was measured:
[1] = tested on: TNF production from human peripheral blood mononuclear cells (PBMC); experiment: TNF production from PBMC stimulated with LPS, LTA, PGN or Pam3CSK4, 24 h, Cytometric Bead Array; assay type: cell-based; details: for TNF % of control / TNF: Table 18
Protocol: (§1) Peripheral blood was drawn from healthy volunteers (with approval from the relevant ethical committee in Denmark). Heparinized blood was diluted 1/1 v/v with RPMI and were subjected to Ficoll density centrifugation within 2 h of drawing. Plasma was collected from the top from individual donors and was kept on ice until it was used at 2% in the culture medium (autologous culture medium). Isolated PBMC were resuspended in autologous culture medium and seeded in 96-well culture plates with 255.000 cells per well in a total of 200 μl. […] The concentrations used for stimulation were optimized on 3 different donors in initial experiments, for LPS two different concentrations were used to be sure to be on a cytokine level that is possible to modulate. In some experiments PBMC were treated with Dexamethason and Indomethacin alone and together with LPS or LTA as a control on downregulation of inflammatory cytokines. The supernatants were collected after incubation at 37° C. for 24 hours, and stored at −80° C. until cytokine measurement. Viability was measured by Alamar Blue (Biosource, DALL 1100) in all experiments and in some cases also by MTS (Promega) according to manufacturer's instruction and was in some experiments also judged by counting of the cells by a Nucleocounter.
(§2) Cytokine production in supernatants was measured by flow cytometry with a human inflammation cytometric bead array (CBA) according to manufacturer's instructions (BD) on a FACSarray flow cytometer. The following cytokines were measured: IL-8, IL-1β, IL-10, TNF, IL-12 p70, IL-6. In some experiments, cytokines were measured by ELISA kits from R&D systems (IL-10, TNF-α, IL-1β) according to the manufacturer' instruction.
(§3) All experiments were performed at least twice, with representative results shown. The data presented are expressed as mean plus/minus standard deviation (SD). […] Differences were considered significant for p<0.05.
Example 3 was carried out essentially as described in Example 2. […]

IL-23, human PBMC = experiment: IL-23 in supernatants of human PBMC, ELISA; assay type: cell-based; details: Infliximab 1 μg/ml
Protocol: as §1
Moreover, the effect of rhBD2 on human monocyte-derived dendritic cells was also investigated.
Cell culture supernatants were collected and stored at −80° C. Amounts of IL-23 was measured by standard sandwich ELISA using commercially available antibodies and standards according to the manufacturer's protocols (eBioscience).
All experiments were performed at least twice, with representative results shown. The data presented are expressed as mean plus/minus standard deviation […]. […] Differences were considered significant for p<0.05.

[2] = tested on: TNF production from mouse peripheral blood mononuclear cells (PBMC); experiment: TNF production from mouse PBMC, mouse inflammation CBA; assay type: cell-based
Protocol: Mouse peripheral blood mononuclear cells were isolated from blood of ten NMRI mice. In short, heparinized blood was diluted 1/1 v/v with RPMI and subjected to Ficoll density centrifugation within 2 h of drawing. Plasma was collected from the top and discarded. Isolated PBMC were resuspended in culture medium (RPMI 1640 (Gibco, 42401) w/1% penicillin and streptomycin and 1% L-Glutamine) and seeded in 96-well culture plates with 115.500 cells per well in a total of 200 μl. […] The supernatants were collected after incubation at 37° C. for 24 hours, and stored at −80° C. until cytokine measurement.
Cytokine production in supernatants was measured by flow cytometry with a mouse inflammation cytometric bead array (CBA) according to manufacturer's instructions (BD) on a FACSarray flow cytometer.

[3] = tested on: IL-10 production from human peripheral blood mononuclear cells (PBMC); experiment: IL-10 production from PBMC stimulated with LPS, LTA or PGN, 24 h, Cytometric Bead Array; assay type: cell-based; details: Table 19
Protocol: as §1, §2, §3

[4] = tested on: IL-1β production from human peripheral blood mononuclear cells (PBMC); experiment: IL-1β production from PBMC stimulated with LPS or LTA, 24 h, Cytometric Bead Array; assay type: cell-based; details: Table 20
Protocol: as §1, §2, §3

PBMC = PBMC viability, Alamar Blue; assay type: cell-based, human; details: 10 μg/ml and 40 μg/ml
Protocol: as §1

[5] = positive control, concentration not given, LPS 0.6 ng/ml
[6] = positive control, concentration not given, LPS 20 ng/ml
[7] = positive control, concentration not given, Medium, non-treated 0
[8] = test compound 1 μg/ml, LPS 0.6 ng/ml
[9] = test compound 1 μg/ml, LPS 0.6 ng/ml, non-treated 728
[10] = test compound 1 μg/ml, LPS 20 ng/ml
[11] = test compound 1 μg/ml, LPS 20 ng/ml, non-treated 2164
[12] = test compound 1 μg/ml, Medium, non-treated 1
[13] = test compound 10 μg/ml, LPS 0.6 ng/ml
[14] = test compound 10 μg/ml, LPS 20 ng/ml
[15] = test compound 40 μg/ml, LPS 0.6 ng/ml
[16] = test compound 40 μg/ml, LPS 20 ng/ml
[17] = test compound 1 μg/ml, LPS 0.6 ng/ml, non-treated 66
[18] = test compound 1 μg/ml, Medium, non-treated 0
[19] = test compound 10 μg/ml, Medium, non-treated 0
[20] = test compound 40 μg/ml, Medium, non-treated 0
[21] = test compound 1 μg/ml, LPS 0.6 ng/ml, non-treated 741
[22] = test compound 1 μg/ml, LPS 20 ng/ml, non-treated 2544

In the case of COc1ccc2c(c1)c(CC(=O)O)c(C)n2C(=O)c1ccc(Cl)cc1 [Indomethacin, reference compound], the “TNF inhibition (positive controls)” value ([1]; PBMC stimulated with LPS or LTA, Table 13) is reported as “only inhibited TNF (Table 13) after stimulation with LTA”.
With “Infliximab: anti-inflammatory compound included as positive control on downregulation of TNF [reference compound]” the “TNF % of control” value [1, 5] was 0%, the TNF ([1]; positive control, concentration not given, LPS 0.6 ng/ml, non-treated 728) was 0 pg/mL and the “TNF % of control” value [1, 6] was 0%. It also gave a TNF ([1]; positive control, concentration not given, LPS 20 ng/ml, non-treated 2164) of 0 pg/mL, a TNF ([1]; positive control, concentration not given, Medium, non-treated 1) of 0 pg/mL and an IL-23 (IL-23, human PBMC; Control (medium), non-treated 257) of 227 pg/mL. For the same molecule, the IL-23 (IL-23, human PBMC; LPS 0.6 ng/ml, non-treated 553) was 356 pg/mL, the IL-23 (IL-23, human PBMC; LPS 20 ng/ml, non-treated 510) was 373 pg/mL and the IL-23 (IL-23, human PBMC; LTA 5 μg/ml, non-treated 762) was 349 pg/mL. The TNF ([2]; Infliximab 1 μg/ml, LPS 20 ng/ml, untreated 2063) was 2119 pg/mL, the TNF ([2]; Infliximab 1 μg/ml, Medium, untreated 578) was 530 pg/mL and the “IL-10 % of control” value [3, 5] was 69%. The IL-10 ([3]; positive control, concentration not given, LPS 0.6 ng/ml, non-treated 66) was 46 pg/mL, the “IL-10 % of control” value [3, 6] was 56% and the IL-10 ([3]; positive control, concentration not given, LPS 20 ng/ml, non-treated 111) was 63 pg/mL. The IL-10 [3, 7] was 0 pg/mL, the “IL-1β % of control” value [4, 5] was 86% and the IL-1β ([4]; positive control, concentration not given, LPS 0.6 ng/ml, non-treated 741) was 636 pg/mL. The “IL-1β % of control” value [4, 6] was 106%, the IL-1β ([4]; positive control, concentration not given, LPS 20 ng/ml, non-treated 2544) was 2704 pg/mL and the IL-1β [4, 7] was 0 pg/mL.
For “hBD1: human beta defensin 1, SEQ ID NO:1, obtained from Peptide Institute Inc. (DHYNCVSSGGQCLYSACPIFTKIQGTCYRGKAKCCK; ends and bridges not checked; cysteine pairing not given here; listed as Homo sapiens)”, the “TNF % of control” value [1, 8] was 65%, the TNF [1, 9] was 474 pg/mL and the “TNF % of control” value [1, 10] was 64%. For the same molecule, the TNF [1, 11] was 1395 pg/mL, the TNF [1, 12] was 1 pg/mL and the “TNF % of control” value [1, 13] was 28%. The TNF ([1]; test compound 10 μg/ml, LPS 0.6 ng/ml, non-treated 728) was 203 pg/mL, the “TNF % of control” value [1, 14] was 61% and the TNF ([1]; test compound 10 μg/ml, LPS 20 ng/ml, non-treated 2164) was 1311 pg/mL. The TNF ([1]; test compound 10 μg/ml, Medium, non-treated 1) was 0 pg/mL, the “TNF % of control” value [1, 15] was 13% and the TNF ([1]; test compound 40 μg/ml, LPS 0.6 ng/ml, non-treated 728) was 91 pg/mL. For the same molecule, the “TNF % of control” value [1, 16] was 46%, the TNF ([1]; test compound 40 μg/ml, LPS 20 ng/ml, non-treated 2164) was 999 pg/mL and the TNF ([1]; test compound 40 μg/ml, Medium, non-treated 1) was 0 pg/mL. For the same molecule, the “IL-10 % of control” value [3, 8] was 108%, the IL-10 [3, 17] was 71 pg/mL and the “IL-10 % of control” value [3, 10] was 85%. For the same molecule, the IL-10 ([3]; test compound 1 μg/ml, LPS 20 ng/ml, non-treated 111) was 95 pg/mL, the IL-10 [3, 18] was 0 pg/mL and the “IL-10 % of control” value [3, 13] was 114%. For the same molecule, the IL-10 ([3]; test compound 10 μg/ml, LPS 0.6 ng/ml, non-treated 66) was 76 pg/mL, the “IL-10 % of control” value [3, 14] was 90% and the IL-10 ([3]; test compound 10 μg/ml, LPS 20 ng/ml, non-treated 111) was 100 pg/mL. The IL-10 [3, 19] was 0 pg/mL, the “IL-10 % of control” value [3, 15] was 104% and the IL-10 ([3]; test compound 40 μg/ml, LPS 0.6 ng/ml, non-treated 66) was 69 pg/mL. The “IL-10 % of control” value [3, 16] was 102%, the IL-10 ([3]; test compound 40 μg/ml, LPS 20 ng/ml, non-treated 111) was 113 pg/mL and the IL-10 [3, 20] was 0 pg/mL. The “IL-1β % of control” value [4, 8] was 69%, the IL-1β [4, 21] was 512 pg/mL and the “IL-1β % of control” value [4, 10] was 82%. The IL-1β [4, 22] was 2087 pg/mL, the IL-1β [4, 18] was 0 pg/mL and the “IL-1β % of control” value [4, 13] was 54%. The IL-1β ([4]; test compound 10 μg/ml, LPS 0.6 ng/ml, non-treated 741) was 401 pg/mL, the “IL-1β % of control” value [4, 14] was 75% and the IL-1β ([4]; test compound 10 μg/ml, LPS 20 ng/ml, non-treated 2544) was 1913 pg/mL. The IL-1β [4, 19] was 0 pg/mL, the “IL-1β % of control” value [4, 15] was 41% and the IL-1β ([4]; test compound 40 μg/ml, LPS 0.6 ng/ml, non-treated 741) was 302 pg/mL. The “IL-1β % of control” value [4, 16] was 63%, the IL-1β ([4]; test compound 40 μg/ml, LPS 20 ng/ml, non-treated 2544) was 1599 pg/mL and the IL-1β [4, 20] was 0 pg/mL.
With “hBD3: human beta defensin 3, SEQ ID NO:3, obtained from Peptide Institute Inc.” the “TNF % of control” value [1, 8] was 73%, the TNF [1, 9] was 528 pg/mL and the “TNF % of control” value [1, 10] was 21%. For the same molecule, the TNF [1, 11] was 451 pg/mL, the TNF [1, 12] was 0 pg/mL and the “IL-10 % of control” value [3, 8] was 107%. The IL-10 [3, 17] was 71 pg/mL, the “IL-10 % of control” value [3, 10] was 137% and the IL-10 [3, 18] was 0 pg/mL. The “IL-1β % of control” value [4, 8] was 45%, the IL-1β [4, 21] was 331 pg/mL and the “IL-1β % of control” value [4, 10] was 22%. The IL-1β [4, 22] was 568 pg/mL, the IL-1β [4, 18] was 0 pg/mL and the “Toxicity to the cells” value (PBMC) was “toxic to the cells”.
With “mBD3: mouse beta defensin 3, SEQ ID NO:6, prepared with the same protocol as hBD2 (KINNPVSCLRKGGRCWNRCIGNTRQIGSCGVPFLKCCKRK; ends and bridges not checked; cysteine pairing not given here; listed as Mus musculus)” the “Secretion of TNF from human PBMCs” value ([1]; Table 23) was “downregulating the secretion of TNF from human PBMCs to the same extend as hBD2 and dexamethason”, the TNF ([2]; mBD3 1 μg/ml, LPS 20 ng/ml, untreated 2063) was 1600 pg/mL and the TNF ([2]; mBD3 1 μg/ml, Medium, untreated 578) was 347 pg/mL. It also gave a TNF ([2]; mBD3 10 μg/ml, LPS 20 ng/ml, untreated 2063) of 297 pg/mL, a TNF ([2]; mBD3 10 μg/ml, Medium, untreated 578) of 180 pg/mL and a TNF ([2]; mBD3 100 μg/ml, LPS 20 ng/ml, untreated 2063) of 195 pg/mL. The TNF ([2]; mBD3 100 μg/ml, Medium, untreated 578) was 182 pg/mL.
